# Experimental data published in publication PMC9320206, “Sanguinarine, identified as a natural alkaloid LSD1 inhibitor, suppresses lung cancer cell growth and migration” (Iranian Journal of Basic Medical Sciences, 2022).
# pIC50: −log10 of the molar value.
# Molecular target: T1, Lysine-specific demethylase 1 (LSD1) (Homo sapiens, UniProt O60341)
# T1 construct: gene KDM1A; recombinant LSD1 (pET-28b-LSD1, expressed in BL21(DE3))
# Assay: HRP/Amplex Red fluorescence demethylase assay with H3K4me2 peptide; no-enzyme counter-screen; […] dilution reversibility assay
# Format: biochemical
smiles,measurement,value
C[n+]1cc2c3c(ccc2c2ccc4cc5c(cc4c21)OCO5)OCO3 [sanguinarine],pIC50,6.40
